Assay results: paper PMC2639596, “Antimicrobial peptides effectively kill a broad spectrum of Listeria monocytogenes and Staphylococcus aureus strains independently of origin, sub-type, or virulence factor expression” (BMC Microbiology, 2008)

Legend:
Listeria monocytogenes = assay: MIC of host defense peptides in liquid medium (microbroth dilution); format: cell-based; conditions: 37°C; for MIC: 18–24 h
Procedure: (§1) Experiments were carried out with a collection of 25 Listeria monocytogenes strains (Table 1) and 16 Staphylococcus aureus strains (Table 2) representing different lineages and serotypes (L. monocytogenes), spa types (S. aureus), and origins (food processing environment, food products, and human clinical isolates). Six L. monocytogenes strains were mutants of the EGD strain and were mutated in genes known to be involved in stress tolerance. The S. aureus collection comprised two deletion mutants, strains Sa113/ΔmprF [8] and Sa113/ΔdltA [7], known to be more sensitive to host defense peptides. Two of the S. aureus strains could not immediately be assigned to an existing spa type and we are in the process of acquiring the additional information that is needed to assign a new spa type to them. The strains were obtained from The National Institute of Aquatic Resources and The National Food Institute, Technical University of Denmark, Faculty of Life Sciences, University of Copenhagen, Denmark, Statens Serum Institut, Denmark, University of Würzburg, Germany and Campden Food and Drink Association, United Kingdom. Stock cultures were stored at -80°C in 4% (w/V) glycerol, 0.5% (w/V) glucose, and 2.0% (w/V) skimmed milk powder. The bacteria were grown in Brain Heart Infusion (BHI) broth (Oxoid, CM0225), Tryptone Soy Broth (TSB) (Oxoid, CM129), and cation-adjusted Mueller-Hinton II Broth (MHB) (Becton Dickinson, 212322) adjusted to pH 7.4. To avoid unspecific binding of host defense peptides to plastic ware and agar, all MIC determinations were carried out using polypropylene plastic ware and radial diffusion assays were carried out in MHB supplemented with 1% agarose (Invitrogen, 15510-027) as gelling agent.
(§2) Protamine was purchased from Sigma (P4020-5G). Plectasin, novicidin, and novispirin G10 were supplied by Novozymes A/S. Recombinant HBD-3 was purchased from PeproTech (300-52).
(§3) The strain collection was tested for sensitivity to protamine, plectasin, novicidin, and novispirin G10 by determining their minimal inhibitory concentration (MIC) using a microbroth dilution method. Colonies from a BHI agar plate incubated overnight were suspended in MHB pH 7.4 to a turbidity of 0.11–0.12 at 546 nm (approx. 1.0 × 10^8 CFU/ml) and diluted in MHB to a concentration of 5.0 × 10^5 CFU/ml. 90 μl of bacterial suspension was incubated with 10 μl of peptide solution in polypropylene 96-well plates (Nunc, 442587) for 18–24 h at 37°C. The peptide solutions were made fresh on the day of assay and diluted two-fold. The range of concentrations assayed were 0.031–32 μg/ml for novicidin, 0.125–128 μg/ml for protamine and novispirin G10, and 0.25–256 μg/ml for plectasin. MIC was the lowest peptide concentration at which visual growth was inhibited. The minimum bactericidal concentration (MBC) values were determined by plating l0 μl samples from wells with no visible growth onto BHI agar plates. MBC was the lowest concentration of each peptide of which 99.9% reduction of the initial inoculum was observed.

Staphylococcus aureus = assay: as above; format: cell-based; conditions: 37°C; for MIC: 18–24 h
Procedure: as §1, §2, §3

[1] = tested on: L. monocytogenes and S. aureus; assay: Minimum bactericidal concentration (MBC), plating from MIC wells; format: cell-based, Listeria monocytogenes, Staphylococcus aureus; conditions: 99.9% reduction of initial inoculum; 10 μl from wells with no visible growth plated on BHI agar
Procedure: as §3

[2] = strain 2275 (EGD dps del), MHB pH 7.4, 5.0 × 10^5 CFU/ml
[3] = strain 2307 (EGD resD del), MHB pH 7.4, 5.0 × 10^5 CFU/ml
[4] = strain 2315 (EGD sigB del), MHB pH 7.4, 5.0 × 10^5 CFU/ml
[5] = strain 2317 (EGD prfA del), MHB pH 7.4, 5.0 × 10^5 CFU/ml
[6] = strain 2374 (EGD perR ins), MHB pH 7.4, 5.0 × 10^5 CFU/ml
[7] = strain 2375 (EGD perR del), MHB pH 7.4, 5.0 × 10^5 CFU/ml
[8] = strain 4239, MHB pH 7.4, 5.0 × 10^5 CFU/ml
[9] = strain 4446, MHB pH 7.4, 5.0 × 10^5 CFU/ml
[10] = strain 4459, MHB pH 7.4, 5.0 × 10^5 CFU/ml
[11] = strain 4666, MHB pH 7.4, 5.0 × 10^5 CFU/ml
[12] = strain 6895, MHB pH 7.4, 5.0 × 10^5 CFU/ml
[13] = strain 7291, MHB pH 7.4, 5.0 × 10^5 CFU/ml
[14] = strain 7418, MHB pH 7.4, 5.0 × 10^5 CFU/ml
[15] = strain EGD (wildtype), MHB pH 7.4, 5.0 × 10^5 CFU/ml
[16] = strain H13-1, MHB pH 7.4, 5.0 × 10^5 CFU/ml
[17] = strain LO28 (wildtype), MHB pH 7.4, 5.0 × 10^5 CFU/ml
[18] = strain La22, MHB pH 7.4, 5.0 × 10^5 CFU/ml
[19] = strain La111, MHB pH 7.4, 5.0 × 10^5 CFU/ml
[20] = strain M103-1, MHB pH 7.4, 5.0 × 10^5 CFU/ml
[21] = strain N53-1, MHB pH 7.4, 5.0 × 10^5 CFU/ml
[22] = strain No40-1, MHB pH 7.4, 5.0 × 10^5 CFU/ml
[23] = strain O57, MHB pH 7.4, 5.0 × 10^5 CFU/ml
[24] = strain R479a, MHB pH 7.4, 5.0 × 10^5 CFU/ml
[25] = strain Scott A, MHB pH 7.4, 5.0 × 10^5 CFU/ml
[26] = strain V518a, MHB pH 7.4, 5.0 × 10^5 CFU/ml
[27] = strain 796, MHB pH 7.4, 5.0 × 10^5 CFU/ml
[28] = strain 2148-jvi, MHB pH 7.4, 5.0 × 10^5 CFU/ml
[29] = strain 8325-4 (wildtype), MHB pH 7.4, 5.0 × 10^5 CFU/ml
[30] = strain 15033, MHB pH 7.4, 5.0 × 10^5 CFU/ml
[31] = strain B29997, MHB pH 7.4, 5.0 × 10^5 CFU/ml
[32] = strain B31369, MHB pH 7.4, 5.0 × 10^5 CFU/ml
[33] = strain J15033, MHB pH 7.4, 5.0 × 10^5 CFU/ml
[34] = strain K3-B2, MHB pH 7.4, 5.0 × 10^5 CFU/ml
[35] = strain KES 439, MHB pH 7.4, 5.0 × 10^5 CFU/ml
[36] = strain KES 626, MHB pH 7.4, 5.0 × 10^5 CFU/ml
[37] = strain KES 735, MHB pH 7.4, 5.0 × 10^5 CFU/ml
[38] = strain KES 855, MHB pH 7.4, 5.0 × 10^5 CFU/ml
[39] = strain Sa113 (wildtype), MHB pH 7.4, 5.0 × 10^5 CFU/ml
[40] = strain ΔdltA (Sa113 dltA ins), MHB pH 7.4, 5.0 × 10^5 CFU/ml
[41] = strain ΔmprF (Sa113 mprF del), MHB pH 7.4, 5.0 × 10^5 CFU/ml

## novispirin G10
Listeria monocytogenes; [2]
  MIC: 64 µg/mL
Listeria monocytogenes; [3]
  MIC: 32 µg/mL
Listeria monocytogenes; [4]
  MIC: 64 µg/mL
Listeria monocytogenes; [5]
  MIC: 64 µg/mL
Listeria monocytogenes; [6]
  MIC: 32 µg/mL
Listeria monocytogenes; [7]
  MIC: 32 µg/mL
Listeria monocytogenes; [8]
  MIC: 64 µg/mL
Listeria monocytogenes; [9]
  MIC: 64 µg/mL
Listeria monocytogenes; [10]
  MIC: 32 µg/mL
Listeria monocytogenes; [11]
  MIC: 64 µg/mL
Listeria monocytogenes; [12]
  MIC: 96 µg/mL
Listeria monocytogenes; [13]
  MIC: 128 µg/mL
Listeria monocytogenes; [14]
  MIC: 64 µg/mL
Listeria monocytogenes; [15]
  MIC: 64 µg/mL
Listeria monocytogenes; [16]
  MIC: 64 µg/mL
Listeria monocytogenes; [17]
  MIC: 16 µg/mL
Listeria monocytogenes; [18]
  MIC: 64 µg/mL
Listeria monocytogenes; [19]
  MIC: 32 µg/mL
Listeria monocytogenes; [20]
  MIC: 64 µg/mL
Listeria monocytogenes; [21]
  MIC: 32 µg/mL
Listeria monocytogenes; [22]
  MIC: 64 µg/mL
Listeria monocytogenes; [23]
  MIC: 128 µg/mL
Listeria monocytogenes; [24]
  MIC: 64 µg/mL
Listeria monocytogenes; [25]
  MIC: 32 µg/mL
Listeria monocytogenes; [26]
  MIC: 64 µg/mL
Staphylococcus aureus; [27]
  MIC: 128 µg/mL
Staphylococcus aureus; [28]
  MIC: 64 µg/mL
Staphylococcus aureus; [29]
  MIC: 128 µg/mL
Staphylococcus aureus; [30]
  MIC: 128 µg/mL
Staphylococcus aureus; [31]
  MIC: 128 µg/mL
Staphylococcus aureus; [32]
  MIC: 256 µg/mL
Staphylococcus aureus; [33]
  MIC: 128 µg/mL
Staphylococcus aureus; [34]
  MIC: 128 µg/mL
Staphylococcus aureus; [35]
  MIC: 128 µg/mL
Staphylococcus aureus; [36]
  MIC: 64 µg/mL
Staphylococcus aureus; [37]
  MIC: 128 µg/mL
Staphylococcus aureus; [38]
  MIC: 64 µg/mL
Staphylococcus aureus; [39]
  MIC: 128 µg/mL
Staphylococcus aureus; [40]
  MIC: 2 µg/mL
Staphylococcus aureus; [41]
  MIC: 8 µg/mL
[1]
  minimum bactericidal concentrations (MBC): identical to the MICs

## protamine
Listeria monocytogenes; range over 25 strains, MHB pH 7.4, 18–24 h
  MIC values against L. monocytogenes (range over strains): 8 to 32 µg/mL
Listeria monocytogenes; [2]
  MIC: 16 µg/mL
Listeria monocytogenes; [3]
  MIC: 8 µg/mL
Listeria monocytogenes; [4]
  MIC: 8 µg/mL
Listeria monocytogenes; [5]
  MIC: 16 µg/mL
Listeria monocytogenes; [6]
  MIC: 32 µg/mL
Listeria monocytogenes; [7]
  MIC: 32 µg/mL
Listeria monocytogenes; [8]
  MIC: 32 µg/mL
Listeria monocytogenes; [9]
  MIC: 16 µg/mL
Listeria monocytogenes; [10]
  MIC: 16 µg/mL
Listeria monocytogenes; [11]
  MIC: 8 µg/mL
Listeria monocytogenes; [12]
  MIC: 16 µg/mL
Listeria monocytogenes; [13]
  MIC: 32 µg/mL
Listeria monocytogenes; [14]
  MIC: 32 µg/mL
Listeria monocytogenes; [15]
  MIC: 8 µg/mL
Listeria monocytogenes; [16]
  MIC: 16 µg/mL
Listeria monocytogenes; [17]
  MIC: 8 µg/mL
Listeria monocytogenes; [18]
  MIC: 16 µg/mL
Listeria monocytogenes; [19]
  MIC: 8 µg/mL
Listeria monocytogenes; [20]
  MIC: 32 µg/mL
Listeria monocytogenes; [21]
  MIC: 16 µg/mL
Listeria monocytogenes; [22]
  MIC: 16 µg/mL
Listeria monocytogenes; [23]
  MIC: 16 µg/mL
Listeria monocytogenes; [24]
  MIC: 16 µg/mL
Listeria monocytogenes; [25]
  MIC: 16 µg/mL
Listeria monocytogenes; [26]
  MIC: 32 µg/mL
Staphylococcus aureus; range over 16 strains, MHB pH 7.4, 18–24 h
  MIC values against S. aureus (range over strains): 8 to 32 µg/mL
Staphylococcus aureus; [27]
  MIC: 16 µg/mL
Staphylococcus aureus; [28]
  MIC: 16 µg/mL
Staphylococcus aureus; [29]
  MIC: 16 µg/mL
Staphylococcus aureus; strain 14943, MHB pH 7.4, 5.0 × 10^5 CFU/ml
  MIC: 16 µg/mL
Staphylococcus aureus; [30]
  MIC: 32 µg/mL
Staphylococcus aureus; [31]
  MIC: 16 µg/mL
Staphylococcus aureus; [32]
  MIC: 16 µg/mL
Staphylococcus aureus; [33]
  MIC: 16 µg/mL
Staphylococcus aureus; [34]
  MIC: 16 µg/mL
Staphylococcus aureus; [35]
  MIC: 32 µg/mL
Staphylococcus aureus; [36]
  MIC: 16 µg/mL
Staphylococcus aureus; [37]
  MIC: 16 µg/mL
Staphylococcus aureus; [38]
  MIC: 16 µg/mL
Staphylococcus aureus; [39]
  MIC: 16 µg/mL
Staphylococcus aureus; [40]
  MIC: 8 µg/mL
Staphylococcus aureus; [41]
  MIC: 8 µg/mL
